Here are results for 16 compounds from US7169925B2, “Indole derivatives as interleukin-4 gene expression inhibitors” (Aventis Pharmaceuticals Inc., priority 2002, dated 2007).

Broadly, the melting point is the temperature, or range, at which the solid turns liquid.

One series deals with Swiss 3T3 fibroblasts. Briefly: In vitro cytotoxicity assay on contact inhibited, non-dividing 3T3 fibroblasts (MTS). The series is classed as cell-based. The method, then:
Other toxicity assays may be used.
Any compound killing 3T3 fibroblast cells was omitted from further studies.
Contact inhibited Swiss 3T3 fibroblasts are purchased from ATCC.
All compound dilutions are assayed in triplicate. […] Cells are returned to the incubator for 2 days.
Media is added to blank wells for background calculations.
Note that starting concentration of CsA was 1 μM.

Series [1] can be described thus: Oral bioavailability (statement). The series is classed as in vivo.
A further series is described as follows: Solubility (statement). The series is classed as physicochemical.
A short description of series [2]: Sheep asthma model (Ascaris suum antigen challenge, specific lung resistance, PC400). The series is classed as in vivo. The method, then:
Briefly, transpulmonary pressure, pulmonary resistance (RL), specific lung resistance (SRL airway hyper reactivity, airway responsiveness, are determined.
Venous blood samples (˜5 ml) are obtained from a peripheral leg vein or the jugular vein for pharmacokinetic data. Measurement of Airway Mechanics: The unsedated sheep are restrained in a cart in the prone position with their heads immobilized. After topical anesthesia of the nasal passages with 2% lidocaine solution, a balloon catheter is advanced through one nostril into the lower esophagus. The animals are […] with a cuffed endotracheal tube through the other nostril using a flexible fiberoptic bronchoscope as a guide. (The cuff of the endotracheal tube is inflated only for the measurement of airway mechanics and during aerosol challenges to prevent undue discomfort. This procedure has no effect on airway mechanics). Pleural pressure is estimated with the esophageal balloon catheter (filled with one ml of air) which is positioned 5–10 cm from the gastroesophageal junction. In this position the end expiratory pleural pressure ranges between −2 and −5 cm H2O. Once the balloon is placed, it is secured so that it remains in position for the duration of the experiment. Lateral pressure in the trachea is measured with a sidehole catheter (inner dimension, 2.5 mm) advanced through and positioned distal to the tip of the endotracheal tube. Transpulmonary pressure, the difference between tracheal and pleural pressure, is measured with a differential pressure transducer catheter system. […] The signals of flow and transpulmonary pressure is recorded on an oscilloscope recorder which is linked to a computer for on-line calculation of RL from transpulmonary pressure, respiratory volume (obtained by digital integration) and flow. […] Immediately after the measurement of RL, thoracic gas volume (Vtg) is measured in a constant volume body plethysmograph to obtain specific lung resistance (SRL=RL·Vtg) in L×cm H2O/LPS. […]

[3] abbreviates: 3 mg/kg aerosol 30 min before antigen challenge, 2 sheep (FIG. 3A).

Where a name gives a salt, the structure may show the parent alone. Starred links: 1 amine or outer side, 2 acyl side, 3 side chain; linkers in the order of their positions; H or OH if unused. Positions of bridges follow the written chain, without caps; N, C: chain ends. Non-standard residues stand in square brackets, D forms with d. Residues, ends and D or L forms follow the SMILES beside them. Chains are numbered I, II in the order given. Actinocin(9to1) = Cc1c2oc3c(C)ccc(C(=O)[*:1])c3nc-2c(C(=O)[*:2])c(N)c1=O; NMeV = CN[C@H](C(=O)O)C(C)C; Sar = CNCC(=O)O

`CN(Cc1cnc2nc(N)nc(N)c2n1)c1ccc(C(=O)N[C@@H](CCC(=O)O)C(=O)O)cc1` [Methotrexate]: the “viability of quiescent 3T3 cells, % control” value (“viability … % control” below) with Swiss 3T3 fibroblasts (mouse, 2 days, 0.03 μM) is reported as 100.0 % control.

For the compound `CCOC(=O)c1c(Nc2ccncc2)c2ccc(Cl)cc2n1CC(=O)N(CC)CC` [Example 34, 6-Chloro-1-diethylcarbamoylmethyl-3-(pyridin-4-ylamino)-1H-indole-2-carboxylic acid ethyl ester], the melting point was 212 to 214 °C.

Take `Cc1c2oc3c(C)ccc(C(=O)N[C@@H]4C(=O)N[C@H](C(C)C)C(=O)N5CCC[C@H]5C(=O)N(C)CC(=O)N(C)[C@@H](C(C)C)C(=O)O[C@@H]4C)c3nc-2c(C(=O)N[C@@H]2C(=O)N[C@H](C(C)C)C(=O)N3CCC[C@H]3C(=O)N(C)CC(=O)N(C)[C@@H](C(C)C)C(=O)O[C@@H]2C)c(N)c1=O` [Actinomycin D] (I: T[dV]P[Sar][NMeV] / II: T[dV]P[Sar][NMeV]; ester I:1-I:C, II:1-II:C; linker I:N-II:N via Actinocin(9to1)): the “viability … % control” value in the series with Swiss 3T3 fibroblasts (0.001 μM, 2 day incubation) is given as 79.0 % control. The “toxic effects on quiescent 3T3 cells (in words)” value in the series with Swiss 3T3 fibroblasts (non-dividing 3T3 cells) is “effected the viability”.

In the case of `O=C(O)c1[nH]c2ccccc2c1Nc1ccncc1` [Example 28, 3-(4-Pyridinylamino)-1H-indole-2-carboxylic acid], the “oral bioavailability (in words)” value in series [1] was “low oral bioavailability”. Moreover, in the series “Solubility (statement)”, the “solubility (in words)” value is “relatively low solubility”. Moreover, in series [2] (setting [3]), the “antigen-induced early bronchial response: acute increase in specific lung resistance (SRL)” value was “did not affect” and the “antigen-induced late bronchial response (SRL)” value was “blocked the late response”. For the same compound, the “post challenge airway responsiveness (decrease of PC400 after antigen challenge)” value in series [2] (3 mg/kg, 2 sheep (FIG. 3B)) was “prevented this effect”.

Regarding `CN(C(=O)c1ccc(Cl)cc1)c1c(C(=O)O)[nH]c2cc(Cl)cc(Cl)c12` [Example 80, 3-((4-chlorobenzoyl)methylamino)-4,6-dichloro-1H-indole-2-carboxylic acid], the melting point was in the range of 279 to 283 °C.

As to `O=C(Nc1c(C(=O)O)[nH]c2cc(Cl)cc(Cl)c12)c1ccccc1Cc1ccccc1` [Example 87, 3-((2-Benzylbenzoyl)amino)-4,6-dichloro-1H-indole-2-carboxylic acid], the melting point fell in the range of 234 to 235 °C.

As for `Cn1c(C(=O)O)c(Nc2ccncc2)c2ccccc21.O=C(O)/C=C\C(=O)O`, the melting point was 192 to 194 °C (dec.).

Compound `COc1ccc2[nH]c(C(=O)O)c(Nc3ccncc3)c2c1` (as salt: trifluoroacetate) returned a melting point of 211 to 213 °C.

In turn, `CCOC(=O)c1c(Nc2ccncc2)c2ccc(Cl)cc2n1C` [Example 27, 6-Chloro-1-methyl-3-(4-pyridinylamino)-1H-indole-2-carboxylic ethyl ester] had a melting point of 154 to 155 °C.

In turn, `CC(C)(C)OC(=O)c1[nH]c2cccc(F)c2c1Nc1ccncc1` [Example 17, 4-fluoro-3-(4-pyridinylamino)-1H-indole-2-carboxylic tert-butyl ester] gave a melting point of 210 to 212 °C.

Consider `NC(=O)c1[nH]c2ccccc2c1Nc1ccncc1` [Example 128, 3-(Pyridin-4-ylamino)-1H-indole-2-carboxamide], for which the melting point is 230 °C (dec.).

`COc1ccc2[nH]c(C(=O)OC(C)(C)C)c(Nc3ccncc3)c2c1` [Example 21, 5-methoxy-3-(4-pyridinylamino)-1H-indole-2-carboxylic tert-butyl ester] showed a melting point of 217 to 219 °C.

`O=C(O)c1[nH]c2cccc(F)c2c1Nc1ccncc1` (as salt: trifluoroacetate): the melting point is 231 to 234 °C (dec.).

`CN(C(=O)c1cccc(F)c1)c1c(C(=O)O)[nH]c2cc(Cl)cc(Cl)c12` [Example 88, 3-((3-Fluorobenzoyl)methylamino)-4,6-dichloro-1H-indole-2-carboxylic acid] showed a melting point of 270 to 280 °C.

`Cn1c(C(=O)O)c(Nc2ccncc2)c2c(F)cccc21` (as salt: trifluoroacetate) [Example 31, 4-Fluoro-1-Methyl-3-(4-pyridinylamino)-1H-indole-2-carboxylic acid Trifluoroacetate Salt] returned a melting point of 197 to 199 °C.

With `C[C@@H]1C[C@H]2[C@@H]3CCC4=CC(=O)C=C[C@]4(C)[C@@]3(F)[C@@H](O)C[C@]2(C)[C@@]1(O)C(=O)CO` [Dexamethasone], the “viability … % control” value in the series with Swiss 3T3 fibroblasts (mouse, 2 days, 0.001 μM) was determined as 100.0 % control.
